# Assay results taken from ChEMBL document CHEMBL2380196, “New anticancer active and selective phenylene-bisbenzothiazoles: synthesis, antiproliferative evaluation and DNA binding” (Eur J Med Chem, 2013).
# Active and inactive are the calls of the source. The rule behind the calls is not given here.
# Tests used:
# SW-620 [1] = experiment: Cell cycle arrest in human SW620 cells assessed as accumulation in S phase at 5 uM after 48 hrs using propidium iodide staining by flow cytometry relative to control; type: functional
# SW-620 [2] = experiment: Cell cycle arrest in human SW620 cells assessed as accumulation in sub-G1 phase at 10 uM after 24 hrs using propidium iodide staining by flow cytometry relative to control; type: functional
# SW-620 [3] = experiment: Cell cycle arrest in human SW620 cells assessed as accumulation in G2/M phase at 5 uM after 24 hrs using propidium iodide staining by flow cytometry relative to control; type: functional
# MIA PaCa-2 [4] = experiment: Antiproliferative activity against human MIAPaCa2 cells after 72 hrs by MTT assay; type: functional, cell-based; conditions: MIA PaCa-2, 72 h; for CC50: read-out: LC50 (the source's name)
# SW-620 [5] = experiment: Antiproliferative activity against human SW620 cells after 72 hrs by MTT assay; type: functional, cell-based; conditions: SW-620, 72 h; for CC50: read-out: LC50 (the source's name)
# SW-620 [6] = experiment: Cell cycle arrest in human SW620 cells assessed as accumulation in G1 phase at 10 uM after 48 hrs using propidium iodide staining by flow cytometry relative to control; type: functional
# MIA PaCa-2 [7] = experiment: Cell cycle arrest in human MIAPaCa2 cells assessed as accumulation in G1 phase at 10 uM after 48 hrs using propidium iodide staining by flow cytometry relative to control; type: functional
# SW-620 [8] = experiment: Cell cycle arrest in human SW620 cells assessed as accumulation in S phase at 5 uM after 24 hrs using propidium iodide staining by flow cytometry relative to control; type: functional
# SK-BR-3 [9] = experiment: Cell cycle arrest in human SKBR3 cells assessed as accumulation in G2/M phase at 10 uM after 24 hrs using propidium iodide staining by flow cytometry relative to control; type: functional
# DNA [10] = experiment: Binding affinity to calf thymus DNA assessed as change in melting temperature at 0.25 drug/DNA ratio by spectrophotometer analysis; type: nucleic-acid assay; conditions: Bos taurus
# SW-620 [11] = experiment: Cell cycle arrest in human SW620 cells assessed as accumulation in G2/M phase at 10 uM after 24 hrs using propidium iodide staining by flow cytometry relative to control; type: functional
# MIA PaCa-2 [12] = experiment: Cell cycle arrest in human MIAPaCa2 cells assessed as accumulation in S phase at 10 uM after 24 hrs using propidium iodide staining by flow cytometry relative to control; type: functional
# SK-BR-3 [13] = experiment: Induction of apoptosis in human SKBR3 cells at 10 uM after 24 hrs using propidium iodide/Annexin-V staining by flow cytometry relative to control; type: functional
# HeLa [14] = experiment: Cell cycle arrest in human HeLa cells assessed as accumulation in G1 phase at 5 uM after 24 hrs using propidium iodide staining by flow cytometry relative to control; type: functional
# SK-BR-3 [15] = experiment: Cell cycle arrest in human SKBR3 cells assessed as accumulation in sub-G1 phase at 5 uM after 24 hrs using propidium iodide staining by flow cytometry relative to control; type: functional
# MIA PaCa-2 [16] = experiment: Cell cycle arrest in human MIAPaCa2 cells assessed as accumulation in S phase at 5 uM after 48 hrs using propidium iodide staining by flow cytometry relative to control; type: functional
# HeLa [17] = experiment: Cell cycle arrest in human HeLa cells assessed as accumulation in S phase at 5 uM after 24 hrs using propidium iodide staining by flow cytometry relative to control; type: functional
# SW-620 [18] = experiment: Cell cycle arrest in human SW620 cells assessed as accumulation in G2/M phase at 10 uM after 48 hrs using propidium iodide staining by flow cytometry relative to control; type: functional
# SK-BR-3 [19] = experiment: Cell cycle arrest in human SKBR3 cells assessed as accumulation in S phase at 10 uM after 24 hrs using propidium iodide staining by flow cytometry relative to control; type: functional
# SW-620 [20] = experiment: Cell cycle arrest in human SW620 cells assessed as accumulation in G1 phase at 5 uM after 48 hrs using propidium iodide staining by flow cytometry relative to control; type: functional
# SW-620 [21] = experiment: Induction of apoptosis in human SW620 cells at 10 uM after 24 hrs using propidium iodide/Annexin-V staining by flow cytometry relative to control; type: functional
# SW-620 [22] = experiment: Cell cycle arrest in human SW620 cells assessed as accumulation in S phase at 10 uM after 48 hrs using propidium iodide staining by flow cytometry relative to control; type: functional
# MIA PaCa-2 [23] = experiment: Cell cycle arrest in human MIAPaCa2 cells assessed as accumulation in G2/M phase at 10 uM after 48 hrs using propidium iodide staining by flow cytometry relative to control; type: functional
# DNA [24] = experiment: Binding affinity to calf thymus DNA assessed as hypochromic effect at 20 uM by UV/Vis spectra analysis; type: nucleic-acid assay; conditions: Bos taurus
# HeLa [25] = experiment: Cell cycle arrest in human HeLa cells assessed as accumulation in S phase after 24 hrs using propidium iodide staining by flow cytometry; type: functional, cell-based
# SW-620 [26] = experiment: Cell cycle arrest in human SW620 cells assessed as accumulation in sub-G1 phase at 5 uM after 24 hrs using propidium iodide staining by flow cytometry relative to control; type: functional
# SW-620 [27] = experiment: Cell cycle arrest in human SW620 cells assessed as accumulation in sub-G1 phase at 10 uM after 48 hrs using propidium iodide staining by flow cytometry relative to control; type: functional
# HeLa [28] = experiment: Antiproliferative activity against human HeLa cells after 72 hrs by MTT assay; type: functional, cell-based; conditions: for CC50: read-out: LC50 (the source's name)
# SW-620 [29] = experiment: Cell cycle arrest in human SW620 cells assessed as accumulation in G1 phase at 10 uM after 24 hrs using propidium iodide staining by flow cytometry relative to control; type: functional
# SW-620 [30] = experiment: Cell cycle arrest in human SW620 cells assessed as accumulation in S phase at 10 uM after 24 hrs using propidium iodide staining by flow cytometry relative to control; type: functional
# [31] = Binding affinity to DNA (unknown origin) after 15 mins by DNase I footprinting assay
# MIA PaCa-2 [32] = experiment: Cell cycle arrest in human MIAPaCa2 cells assessed as accumulation in sub-G1 phase at 5 uM after 24 hrs using propidium iodide staining by flow cytometry relative to control; type: functional
# MCF7 = experiment: Antiproliferative activity against human MCF7 cells after 72 hrs by MTT assay; type: functional, cell-based; conditions: MCF7, 72 h; for CC50: read-out: LC50 (the source's name)
# HeLa [33] = experiment: Cell cycle arrest in human HeLa cells assessed as accumulation in G2/M phase at 10 uM after 24 hrs using propidium iodide staining by flow cytometry relative to control; type: functional
# MIA PaCa-2 [34] = experiment: Cell cycle arrest in human MIAPaCa2 cells assessed as accumulation in sub-G1 phase at 10 uM after 48 hrs using propidium iodide staining by flow cytometry relative to control; type: functional
# SW-620 [35] = experiment: Cell cycle arrest in human SW620 cells assessed as accumulation in G1 phase at 5 uM after 24 hrs using propidium iodide staining by flow cytometry relative to control; type: functional
# SK-BR-3 [36] = experiment: Cell cycle arrest in human SKBR3 cells assessed as accumulation in G2/M phase at 5 uM after 48 hrs using propidium iodide staining by flow cytometry relative to control; type: functional
# SW-620 [37] = experiment: Induction of apoptosis in human SW620 cells at 10 uM after 48 hrs using propidium iodide/Annexin-V staining by flow cytometry relative to control; type: functional
# MIA PaCa-2 [38] = experiment: Induction of apoptosis in human MIAPaCa2 cells at 10 uM after 48 hrs using propidium iodide/Annexin-V staining by flow cytometry relative to control; type: functional
# MIA PaCa-2 [39] = experiment: Induction of apoptosis in human MIAPaCa2 cells at 10 uM after 24 hrs using propidium iodide/Annexin-V staining by flow cytometry relative to control; type: functional
smiles,measurement,setting,value
Cl.Cl.c1cc(-c2nc3ccc(C4=NCCN4)cc3s2)cc(-c2nc3ccc(C4=NCCN4)cc3s2)c1,Activity,SW-620 [1],48.6%
same,Activity,SW-620 [2],45.3%
same,Activity,SW-620 [3],15.5%
same,IC50,MIA PaCa-2 [4],0.26 µM
same,CC50,MIA PaCa-2 [4],1.49 µM
same,IC50,SW-620 [5],0.47 µM
same,CC50,SW-620 [5],6.19 µM
same,Activity,SW-620 [6],23.7%
same,Activity,MIA PaCa-2 [7],42.8%
same,Activity,SW-620 [8],46.6%
same,Activity,SK-BR-3 [9],17.8%
same,ΔTm,DNA [10],12.8 °C
same,Activity,SW-620 [11],23.9%
same,Activity,MIA PaCa-2 [12],49.1%
same,Activity,SK-BR-3 [13],8%
same,Activity,HeLa [14],39.3%
same,Activity,SK-BR-3 [15],33.3%
same,Activity,MIA PaCa-2 [16],30.8%
same,Activity,HeLa [17],38.4%
same,Activity,SW-620 [18],6.8%
same,Activity,SK-BR-3 [19],62.1%
same,Activity,SW-620 [20],36.7%
same,Activity,SW-620 [21],8%
same,Activity,SW-620 [22],69.6%
same,Activity,MIA PaCa-2 [23],8.6%
same,Activity,DNA [24],Active
same,Activity,HeLa [25],Dose-dependent effect
same,Activity,SW-620 [26],13.5%
same,Activity,SW-620 [27],13.6%
same,IC50,HeLa [28],2.06 µM
same,CC50,HeLa [28],7.38 µM
same,Activity,SW-620 [29],29.9%
same,Activity,SW-620 [30],65.6%
same,Activity,[31],Active
same,Activity,MIA PaCa-2 [32],17.7%
same,IC50,MCF7,> 100 µM
same,CC50,MCF7,5.3 µM
same,Activity,HeLa [33],2.1%
same,Activity,MIA PaCa-2 [34],9.1%
same,Activity,SW-620 [35],45.3%
same,Activity,SK-BR-3 [36],21.1%
same,Activity,SW-620 [37],95%
Cl.Cl.c1cc2nc(-c3ccc(-c4nc5ccc(C6=NCCN6)cc5s4)cc3)sc2cc1C1=NCCN1,IC50,MIA PaCa-2 [4],3.54 µM
same,CC50,MIA PaCa-2 [4],36.7 µM
same,IC50,SW-620 [5],7.65 µM
same,CC50,SW-620 [5],> 100 µM
same,Activity,MIA PaCa-2 [38],4%
same,Activity,MIA PaCa-2 [7],40.6%
same,Activity,SK-BR-3 [9],14.5%
same,ΔTm,DNA [10],3.9 °C
same,Activity,MIA PaCa-2 [12],40.1%
same,Activity,SK-BR-3 [13],5%
same,Activity,HeLa [14],42%
same,Activity,SK-BR-3 [15],15.8%
same,Activity,MIA PaCa-2 [16],35.8%
same,Activity,HeLa [17],44.5%
same,Activity,SK-BR-3 [19],39.1%
same,Activity,MIA PaCa-2 [23],18.4%
same,Activity,DNA [24],Active
same,Activity,MIA PaCa-2 [39],5%
same,IC50,HeLa [28],7.75 µM
same,CC50,HeLa [28],71.1 µM
same,Activity,MIA PaCa-2 [32],34.4%
same,IC50,MCF7,3.07 µM
same,CC50,MCF7,> 100 µM
same,Activity,HeLa [33],7.2%
same,Activity,MIA PaCa-2 [34],53.9%
same,Activity,SK-BR-3 [36],13.8%
